# Measurements as given in patent US20210283116A1, “METHODS OF TREATING ACUTE KIDNEY INJURY” (Mitobridge, Inc., priority 2016, published 2021).
# Key:
# [1] = tested on: rat model of acute kidney injury (ischemia reperfusion injury); assay: Ischemia reperfusion injury rat model of acute kidney injury, Compound A intravenously; assay type: in vivo, Sprague-Dawley male rats
# Description: Animals, surgery and dosing: Sprague-Dawley male rats approximately 280-300 g, with ad libitum access to standard feed and water were used in these experiments. Rats (n=8/group) were anesthetized with isoflurane and placed ventrally on a temperature controlled heated surgical platform. A skin incision was made on the dorsal surface, exposing both kidneys through flank incisions. Vascular clips were applied to both renal pedicles and occlusion lasted 45 minutes. After 45 min, the clips were removed, kidneys were monitored for successful reperfusion, and surgical sites were then sutured. The sham group (n=4 rats) was subjected to similar surgical procedures, except that the occluding clamps were not applied. Compound A was formulated as a fresh daily clear solution of the hydrate of the meglumine salt of Compound A (1.5 Molar equivalent of Compound A) in 5% dextrose. Compound A was dosed IV via tail vein at 3 mg/kg, 1 mg/kg or 0.3 mg/kg 4 hours after animals awoke from surgery and sham surgery and IRI control animals were similarly dosed with vehicle.
# Blood collection: Twenty-four (24) hours after reperfusion, blood was collected in K2 EDTA tubes by retro-orbital bleeding from all groups under mild isoflurane anesthesia. Plasma was separated by centrifugation at 3000 rpm for 10 minutes at 4° C. Urine collection: all study animal groups were placed in metabolic cages immediately after surgery recovery and urine was collected for 24 or 48 hours. Urine volume was carefully measured and then was centrifuged at 3000 rpm for 10 min at 4° C. to remove sediments. Plasma and urine creatinine were analyzed using a fully automated clinical biochemistry analyzer (Siemens Dimension® Xpand® Plus Integrated Chemistry System). Urinary NGAL was analyzed using a BioPorto ELISA kit. Creatinine clearance was calculated as follows: […]
# GraphPad Prism software, Version 6.05 was used for graphing and statistical testing. Creatinine was tested for normal distribution in all groups via a D'Agostino-Pearson omnibus normality test and a Shapiro-Wilk normality test. Statistical significance (p<0.05) is determined by an ordinary One-way ANOVA followed by Dunnett's multiple comparison using the […] as the control group. **p<0.01, ***p<0.001 and ****p<0.0001 vs. IR-Vehicle.
# [2] = tested on: rat model of acute kidney injury (ischemia reperfusion injury); assay: Ischemia reperfusion injury rat model of acute kidney injury, Compound B orally; assay type: in vivo, Sprague-Dawley male rats
# Description: Animals, surgery and dosing: Sprague-Dawley male rats approximately 280-300 g, with ad libitum access to standard feed and water were used in these experiments. Rats (n=8/group) were anesthetized with isoflurane and placed ventrally on a temperature controlled heated surgical platform. A skin incision was made on the dorsal surface, exposing both kidneys through flank incisions. Vascular clips were applied to both renal pedicles and occlusion lasted 45 minutes. After 45 min, the clips were removed, kidneys were monitored for successful reperfusion, and surgical sites were sutured. The sham group (n=4 rats) was subjected to similar surgical procedures, except that the occluding clamps were not applied. Compound B was formulated as a fresh daily suspension in 0.25% sodium carboxymethyl-cellulose, 0.25% Tween-80 in purified water. Compound B was dosed orally at 30 mg/kg 4 hours after animals awoke from surgery and sham surgery and IRI control animals were similarly dosed with vehicle. Blood collection: Twenty-four (24) hours after reperfusion, blood was collected in K2 EDTA tubes by retro-orbital bleeding from all groups under mild isoflurane anesthesia. Plasma was separated by centrifugation at 3000 rpm for 10 minutes at 4° C. Urine collection: all study animal groups were placed in metabolic cages immediately after surgery recovery and urine was collected for 24 hours. Urine volume was carefully measured and then was centrifuged at 3000 rpm for 10 min at 4° C. to remove sediments. Plasma and urine creatinine were analyzed using a fully automated clinical biochemistry analyzer (Siemens Dimension® Xpand® Plus Integrated Chemistry System). Creatinine clearance was calculated as follows: […]
# GraphPad Prism software, Version 6.05 was used for graphing and statistical testing. Data was tested for normal distribution in all groups via a D'Agostino-Pearson omnibus normality test and a Shapiro-Wilk normality test. […] Statistical significance is determined by p<0.05 of IRI-vehicle compared to compound treated groups. **p<0.01 and ***p<0.001 vs. IR-Vehicle. […]
Compound,"kidney function (creatinine clearance) ([1]; 0.3 mg/kg, 1 mg/kg or 3 mg/kg IV 4 hours after ischemia, 24 hours after kidney injury, vs. IR-Vehicle)","plasma creatinine ([1]; 0.3 mg/kg, 1 mg/kg or 3 mg/kg IV 4 hours after ischemia, 24 hours after reperfusion, vs. IR-Vehicle)","early kidney injury biomarker NGAL (urinary) ([1]; 0.3 mg/kg, 1 mg/kg or 3 mg/kg IV 4 hours after ischemia, 48 hours after kidney injury, vs. IR-Vehicle)","kidney injury ([1]; dosed IV 4 hours after ischemia, hydrate of meglumine salt in 5% dextrose)","plasma creatinine ([2]; 30 mg/kg orally 4 hours after ischemia, 24 hours after reperfusion, vs. IR-Vehicle)","kidney function (creatinine clearance) ([2]; 30 mg/kg orally 4 hours after ischemia, 24 hours urine collection, vs. IR-Vehicle)","kidney injury ([2]; 30 mg/kg orally, dosed 4 hours after ischemia)"
"Cc1cnc(-c2ccc(C(F)(F)F)nc2)n1Cc1ccccc1OCCC[C@@H](C)CC(=O)O [Compound A, (R)-3-methyl-6-(2-((5-methyl-2-(6-(trifluoromethyl)pyridin-3-yl)-1H-imidazol-1-yl)methyl)phenoxy)hexanoic acid]",improves kidney function,significantly reduces plasma creatinine,reduces the early kidney injury biomarker NGAL,reduces kidney injury,,,
Cc1cc(SCc2nn(-c3ccc(C(F)(F)F)cc3)nc2C)ccc1OCC(=O)O [Compound B],,,,,reduces plasma creatinine,improves kidney function,reduces kidney injury
